SMILES strings stand for the structures. pKi: −log10 of the molar value. Where a name gives a salt, the structure may show the parent alone. Some results are limits rather than exact numbers.

Here are results for 6 molecules from patent US7414051B2, “Substituted-dihydro[1,4]oxazino[2,3,4-hi]indazole derivatives as 5-hydroxytryptamine-6 ligands” (Wyeth, priority 2006, dated 2008).

For series [1], the target named is T1, human cloned 5-HT6 receptors (Homo sapiens, UniProt P50406).
T1 construct: expressed in transfected cells; host or cells: HeLa cells
T1 sequence (P50406 whole entry): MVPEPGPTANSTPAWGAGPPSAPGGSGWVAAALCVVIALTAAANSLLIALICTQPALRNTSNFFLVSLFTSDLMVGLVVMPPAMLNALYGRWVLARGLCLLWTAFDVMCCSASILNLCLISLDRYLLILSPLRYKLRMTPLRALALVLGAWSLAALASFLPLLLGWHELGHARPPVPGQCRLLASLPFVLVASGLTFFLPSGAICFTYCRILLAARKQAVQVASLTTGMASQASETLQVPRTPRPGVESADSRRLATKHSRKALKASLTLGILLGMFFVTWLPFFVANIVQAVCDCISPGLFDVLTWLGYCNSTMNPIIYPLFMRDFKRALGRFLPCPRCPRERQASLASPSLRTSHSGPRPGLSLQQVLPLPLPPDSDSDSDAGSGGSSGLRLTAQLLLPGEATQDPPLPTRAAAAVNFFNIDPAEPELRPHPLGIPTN
Briefly: 5-HT6 binding affinity, [3H]-LSD displacement, membranes of Hela cells expressing human cloned 5-HT6 receptors. Here is the method: The affinity of test compounds for the serotonin 5-HT6 receptor was evaluated in the following manner. Cultured Hela cells expressing human cloned 5-HT6 receptors were harvested and centrifuged at low speed (1,000×g) for 10.0 minutes to remove the culture media. The harvested cells were suspended in half volume of fresh physiological phosphate buffered saline solution and recentrifuged at the same speed. This operation was repeated. The collected cells were then homogenized in ten volumes of 50 mM Tris.HCl (pH 7.4) and 0.5 mM EDTA. The homogenate was centrifuged at 40,000×g for 30.0 min and the precipitate was collected. The obtained pellet was resuspended in 10 volumes of Tris.HCl buffer and recentrifuged at the same speed. The final pellet was suspended in a small volume of Tris.HCl buffer and the tissue protein content was determined in aliquots of 10-25 μl volumes. Bovine Serum Albumin was used as the standard in the protein determination according to the method described in Lowry et al., J. Biol. Chem., 193: 265 (1951). The volume of the suspended cell membranes was adjusted to give a tissue protein concentration of 1.0 mg/ml of suspension. The prepared membrane suspension (10 times concentrated) was aliquoted in 1.0 ml volumes and stored at −70° C. until used in subsequent binding experiments.
Binding experiments were performed in a 96 well microtiter plate format, in a total volume of 200 μl. […] The test compounds were added in 20.0 μl volume.
The reaction was allowed to proceed in the dark for 120 minutes at room temperature, at which time, the bound ligand-receptor complex was filtered off on a 96 well unifilter with a Packard Filtermate® 196 Harvester. The bound complex caught on the filter disk was allowed to air dry and the radioactivity is measured in a Packard TopCount® equipped with six photomultiplier detectors, after the addition of 40.0 μl Microscint®-20 scintillant to each shallow well. The unifilter plate was heat-sealed and counted in a PackardTopCount® with a tritium efficiency of 31.0%.
Binding in the presence of varying concentrations of test compound was expressed as a percentage of specific binding in the absence of test compound. The results were plotted as log % bound versus log concentration of test compound. […] A linear regression line of data points was plotted, from which the IC50 value is determined and the Ki value is determined based upon the following equation: Ki=IC50/(1+L/KD) where L was the concentration of the radioactive ligand used and KD is the dissociation constant of the ligand for the receptor, both expressed in nM.

`CN1CCN(c2cc3c4c(c2)c(S(=O)(=O)c2cccc5ccccc25)nn4CCO3)CC1` (as salt: hydrochloride) [Example 6, 8-(4-Methylpiperazin-1-yl)-6-(1-naphthylsulfonyl)-2,3-dihydro[1,4]oxazino[2,3,4-hi]indazole Hydrochloride] registered a melting point of more than 225 °C.
In the case of `CN1CCN(c2cc3c4c(c2)c(S(=O)(=O)c2cccc5ccccc25)nn4CCO3)CC1` [Example 6, 8-(4-Methylpiperazin-1-yl)-6-(1-naphthylsulfonyl)-2,3-dihydro[1,4]oxazino[2,3,4-hi]indazole Hydrochloride], the negative-log Ki (pKi) in series [1] was 9.00.
Still for that read-out and setting: to `CNCCOc1cc2c3c(c1)c(S(=O)(=O)c1cccc4ccccc14)nn3CCO2` [Example 12, N-methyl-2-{[6-(1-naphthylsulfonyl)-2,3-dihydro[1,4]oxazino[2,3,4-hi]indazol-8-yl]oxy}ethanamine Hydrochloride] belongs 8.29; to `CN(C)CCOc1cc2c3c(c1)c(S(=O)(=O)c1cccc4ccccc14)nn3CCO2` [Example 13, N,N-Dimethyl-2-{[6-(1-naphthylsulfonyl)-2,3-dihydro[1,4]oxazino[2,3,4-hi]indazol-8-yl]oxy}ethanamine], 8.10.
In the case of `O=S(=O)(c1cccc2ccccc12)c1nn2c3c(cc(OCCN4CCCCC4)cc13)OCC2` [Example 14, 6-(1-Naphthylsulfonyl)-8-(2-piperidin-1-ylethoxy)-2,3-dihydro[1,4]oxazino[2,3,4-hi]-indazole], the melting point is 90 to 92 °C. In series [1], this molecule had a negative-log Ki (pKi) of 7.59.
The matching figures for `O=S(=O)(c1cccc2ccccc12)c1nn2c3c(cc(OCCN4CCCC4)cc13)OCC2` [Example 15, 6-(1-Naphthylsulfonyl)-8-(2-pyrrolidin-1-ylethoxy)-2,3-dihydro[1,4]oxazino[2,3,4-hi]-indazole]: 127 to 129 °C and 7.85.
